Measured values from patent US20080070240A2, “COMPOSITION FOR DEAMINATING DNA AND METHOD OF DETECTING METHYLATED DNA” (Toyo Boseki Kabushiki Kaisha, priority 2004, published 2008).

Experiment: Measurement of solubility of sulfites in distilled water
Details: for Concentration, Calculated value: calculated from mass and molecular weight; for Concentration, Measured value (sulfite concentration, solubility): method 0-A
Method: To a cuvette for measuring absorbance (1×1×4 cm, manufactured by Hitachi High-Technologies Co.), 3 ml of 0.1 N hydrochloric acid (manufactured by Wako Pure Chemical Co., Ltd.) was added. To the cuvette, 30 μl of a sulfite solution diluted with distilled water was added, the cuvette was covered with parafilm, and inverted 3 times to mix the solutions.
Then, the mass, volume and pH at that time were measured. In addition, with regard to each solution, the sulfite concentration was measured in accordance with the method 0-A described above.
With regard to the concentration in the table, the calculated value represents the sulfite concentration (M (mol/l)) calculated from the mass and the molecular weight of each dissolved sulfite. In addition, the measured value represents the sulfite concentration (M) measured in accordance with the method 0-A described above.

Compound | pH of saturated solution (30° C.) | Concentration, Calculated value (30° C.) [M] | Concentration, Measured value (sulfite concentration, solubility) (30° C.) [M] | pH of saturated solution (70° C.) | Concentration, Calculated value (70° C.) [M] | solubility (30° C., distilled water, saturated) [g/mL]
O=S([O-])O.[Na+] [Sodium bisulfite, sodium bisulfite] | 4.4 | 5.2 | 5.0 | 4.5 | 6.5 | –
O=S([O-])[O-].[Na+].[Na+] [Sodium sulfite, sodium sulfite] | 10.3 | – | – | 10.5 | – | 0.20
ammonium sulfite monohydrate | – | – | 3.5 | – | – | –
